Read-outs that look alike come from different tables or passages of the source.
Assays:
[1] = tested on: voltage-gated sodium channels; assay: Electrophysiology, voltage-gated sodium channels; assay type: biochemical
[2] = tested on: seizures induced by sound; assay: Sound-induced seizures, Frings mice; assay type: in vivo
Protocol: (§1) For some compounds, a test for proconvulsant activity was performed (TTE test), as well as a test on activity in focal seizures (related with limbic system, 6 Hz test, hippocampal kindling). […] A test on inhibiting seizures induced by sound (Frings mice) was performed for compounds 12 and 26-28. Electrophysiology tests also have been performed, for seizures induced by bicuculline, picrotoxin, and NMDA. Prevention of (pilocarpine induced) status epilepticus has been noticed.

[3] = tested on: seizures induced by bicuculline; assay: Bicuculline (BIC) induced seizures; assay type: in vivo
Protocol: as §1

[4] = tested on: formalin-induced pain (acute/neuropathic and inflammatory phase); assay: Formalin test, mice; assay type: in vivo
Protocol: The test was performed with use of formaldehyde as a substance causing pain (neuropathic and inflammatory afterwards) in mice, which were injected formalin into a hind limb.
During the first 10 min. after administration the mouse is licking the hind limb (acute phase), afterwards there is a short break in behavior change, and then the mouse licks its limb again for another 20-30 min. (inflammatory phase) (FIG. 3 for 12 and FIG. 4 for 26). The acute phase represents direct affection on the peripheral nerve and the inflammatory phase is related with secretion of inflammation mediators from the damaged tissue and nerves. The described model tests effectiveness of a substance to inhibit acute and chronic excessive neuronal discharges in response to peripheral nerves activation.

[5] = tested on: maximal electroshock seizures; assay: Maximum Electroshock Seizure (MES) test, rats; assay type: in vivo
Protocol: In order to define anticonvulsant activity, screening tests were performed, using animal models of seizures. […] The tests were based on administration of a compound to an animal and after certain time inducing state similar to epilepsy attack in human. Each substance (after dissolving in methylcellulose) was normally tested in doses 30, 100, and 300 mg/kg body weight (b.w.) (mice) or in 30 and 50 mg/kg b.w. (rats) in two possible routes of administration: intraperitoneal (i.p.) or oral (p.o.). […] […] (mice) the tests were also performed in doses 10 and 3 mg/kg b.w.
Maximum Electroshock Seizure (MES) test is an electric test, verifying activity towards generalized tonic-clonic seizures (grand mal epilepsy). […] Its procedure consists in administration to an animal a mentioned dose, […] (after anesthetic eye-drops: 0.5% tetracaine hydrochloride in 0.9% NaCl) and turning on electric current (60 Hz, 0.2 s, 50 mA (mice) or 150 mA (rats)). […]

[6] = tested on: hippocampal kindling seizures; assay: Electric hippocampal kindling, rats; assay type: in vivo
Protocol: as §1

[7] = tested on: maximal electroshock seizures; assay: Maximum Electroshock Seizure (MES) test, mice; assay type: in vivo
Method in brief: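 Mice received compound in methylcellulose i.p. or p.o. at 30, 100 and 300 mg/kg, with some tests at 10 and 3 mg/kg. At 0.5 or 4 h, after tetracaine eye-drops, current was delivered through corneal electrodes (60 Hz, 0.2 s, 50 mA). Groups were one mouse at 30 and 300 mg/kg and three at 100 mg/kg.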

[8] = tested on: metrazol seizure threshold; assay: Metrazol test, time to first twitch and first clonus; assay type: in vivo; settings: for average time until the first twitch: control 30.07 (±1.23) min.; for average time from administration until the first clonus: control 34.38 (±0.94) min.
Protocol: In the MES test it inhibits seizures by inhibiting post-synaptic excitatory current. […] In the metrazol test average time until the first twitch was 27.3±0.2 min. for the dose 5 mg/kg b.w. and 27.6 (±0.3) min. for the dose 30 mg/kg b.w., comparing to the control 30.07 (±1.23) min. Average time from administration until the first clonus was 33.6 (±1.23) min. for the dose 5 mg/kg b.w. and 32.70 (±1.28) for the dose 30 mg/kg b.w., comparing to the control 34.38 (±0.94) min.

[9] = tested on: 6 Hz focal seizures (limbic system); assay: 6 Hz test, mice; assay type: in vivo; settings: for ED50: Mus musculus, ip, 0.25 h
Protocol: as §1

[10] = tested on: seizures induced by picrotoxin; assay: Picrotoxin (PIC) induced seizures; assay type: in vivo
Protocol: as §1

neurotoxicity (rotarod) = assay: Neurotoxicity test (TOX), rotarod, mice; assay type: in vivo; settings: mice
[11] = tested on: LTG-resistant amygdala seizures; assay: Lamotrigine-resistant amygdala kindling, rats; assay type: in vivo; settings: t=0.25 h, i.p.
[12] = tested on: pilocarpine induced status epilepticus; assay: Status epilepticus prevention (pilocarpine), rats; assay type: in vivo, Sprague Dawley albino rat; settings: i.p.
Protocol: Status epilepticus prevention—an animal (Sprague Dawley albino rat male) is given a dose of tested substance. After 0, 0.25, 0.5, 1, 2, and 4 h pilocarpine is administered. The seizures induced are described by Racine's score. Compounds 27 and 28 were administered i.p. in doses 25 and 45 mg/kg b.w. respectively. […] Average body weight loss is measured 24 h after administration.

[13] = dose 100 mg/kg b.w., time 0.5 h
[14] = dose 300 mg/kg b.w., time 0.5 h
[15] = mice, dose 30 mg/kg b.w., time 0.5 h
[16] = mice, dose 100 mg/kg b.w., time 0.5 h

Cc1cccc(C)c1OCCN[C@H](C)CO [Compound 12, R-(−)-2N-[(2,6-dimethylphenoxy)ethyl]amino-1-propanol]
effect on voltage-gated sodium channels [1]: blocks voltage-gated sodium channels dependently on the voltage | ED50 (Frings mice, 0.25 h) ([2]; Frings mice): 5.39 mg/kg b.w. | ED50 (BIC, 0.25 h) [3]: > 75 mg/kg b.w. | formalin test result (FIG. 3) ([4]; mice): inhibiting neuropathic pain (first 10 min. phase) and inflammatory pain (next 30 min. phase) | activity in MES, rats [5]: active | ED50 (MES, rats, i.p., 0.25 h) [5]: 7.43 mg/kg b.w. | ED50 (MES, rats, p.o., 0.25 h) [5]: 28.60 mg/kg b.w. | activity in electric kindling (rats, hippocampus) ([6]; 0.25 h after administration of 60 mg/kg b.w.): reveals activity | ED50 (kindling, rats, hippocampus, 0.25 h) [6]: > 30 mg/kg b.w. | responders at 10 mg/kg ([7]; Mus musculus, mice, dose 10 mg/kg b.w., time 0.5 h, read-out: MES, No. of protected animals/No. of used animals (converted)): 25% | responders at 30 mg/kg ([7]; Mus musculus, mice, dose 30 mg/kg b.w., time 0.5 h, read-out: MES, No. of protected animals/No. of used animals): 100% | responders at 100 mg/kg ([7]; Mus musculus, mice, dose 100 mg/kg b.w., time 0.5 h, read-out: MES, No. of protected animals/No. of used animals (converted)): 100% | responders at 100 mg/kg ([7]; Mus musculus, mice, dose 100 mg/kg b.w., time 4 h, read-out: MES, No. of protected animals/No. of used animals (converted)): 50% | ED50 (MES, female mice, i.p., 0.25 h) ([7]; female mice, i.p., 0.25 h): 22.28 mg/kg b.w. | activity in MES, mice ([7]; mice): active | ED50 (MES, mice, i.p., 0.25 h) ([7]; mice, i.p., 0.25 h): 5.34 mg/kg b.w. | ED50 (MES, mice, p.o., 0.25 h) ([7]; mice, p.o., 0.25 h): 51.19 mg/kg b.w. | average time until the first twitch ([8]; dose 5 mg/kg b.w.): 27.3 ± 0.2 min | average time from administration until the first clonus ([8]; dose 5 mg/kg b.w.): 33.6 (±1.23) min. | average time until the first twitch ([8]; dose 30 mg/kg b.w.): 27.6 (±0.3) min. | average time from administration until the first clonus ([8]; dose 30 mg/kg b.w.): 32.70 (±1.28) | ED50 ([9]; read-out: ED50 (6 Hz, female mice, i.p., 22 mA, 0.25 h)): 7.06 mg/kg | ED50 ([9]; read-out: ED50 (6 Hz, mice, i.p., 22 mA, 0.25 h)): 43.8 mg/kg | ED50 (6 Hz, female mice, i.p., 44 mA, 0.25 h) ([9]; female mice, i.p., 44 mA): 41.3 mg/kg b.w. | ED50 (6 Hz, mice, i.p., 44 mA, 0.25 h) ([9]; mice, i.p., 44 mA): 30.02 mg/kg b.w. | ED50 (PIC, 0.25 h) [10]: > 75 mg/kg b.w. | TOX, No. of animals exhibiting motor impairment/no. of used animals (neurotoxicity (rotarod); [13]): 8/8 | TOX, No. of animals exhibiting motor impairment/no. of used animals (neurotoxicity (rotarod); dose 100 mg/kg b.w., time 4 h, 100 mg/kg): 1/3 | TOX, No. of animals exhibiting motor impairment/no. of used animals (neurotoxicity (rotarod); [14]): 4/4

CCC(CO)NCCOc1c(C)cccc1Cl (stereo not shown) [Compound 26, R,S-2N-[(2-chlor-6-methylphenoxy)ethyl]amino-1-butanol]
ED50 (sound induced seizures, mice, 0.25 h) ([2]; mice): 6.05 mg/kg b.w. | ED50 (BIC, 0.25 h) [3]: > 70 mg/kg b.w. | effective dose (LTG-resistant amygdala seizures) [11]: 15 mg/kg b.w. | neuropathic pain inhibition (formalin test) ([4]; 21 mg/kg b.w.): 36% | acute phase of the formalin test ([4]; mice, i.p., 21 mg/kg b.w., first ca. 10 min. after formalin, p<0.01): 64 % of control | inflammatory phase of the formalin test ([4]; mice, i.p., 21 mg/kg b.w., not statistically significant): 72 % of control | ED50 (MES, rats, i.p., 0.25 h) [5]: 7.3 mg/kg b.w. | ED50 (MES, rats, p.o., 0.25 h) [5]: 67.69 mg/kg b.w. | MES, No. of protected animals/No. of used animals ([7]; mice, dose 10 mg/kg b.w., time 0.5 h): 2/4 | MES, No. of protected animals/No. of used animals [7, 15]: 1/1 | MES, No. of protected animals/No. of used animals [7, 16]: 1/1 | ED50 (MES, mice, i.p., 0.25 h) ([7]; mice, i.p., 0.25 h): 21.44 mg/kg b.w. | ED50 (PIC, 0.25 h) [10]: > 70 mg/kg b.w. | TOX, No. of animals exhibiting motor impairment/no. of used animals (neurotoxicity (rotarod); [13]): 8/8 | TOX, No. of animals exhibiting motor impairment/no. of used animals (neurotoxicity (rotarod); [14]): 4/4

CC[C@@H](CO)NCCOc1c(C)cccc1Cl [Compound 28, S-(+)-2N-[(2-chlor-6-methylphenoxy)ethyl]amino-1-butanol]
ED50 (kindling, rats, hippocampus, 0.25 h) [6]: 15.81 mg/kg b.w. | MES, No. of protected animals/No. of used animals [7, 15]: 1/1 | MES, No. of protected animals/No. of used animals [7, 16]: 1/1 | Average weight loss ± S.E.M. ([12]; body weight loss 24 h after administration, 25 (27) or 45 (28) mg/kg b.w.): 3.8 ± 5.7 | protection in status epilepticus prevention ([12]; 25 (27) and 45 (28) mg/kg b.w.): 3 rats out of 8 | Protection ([12]; rats protected/tested, time 0 h, dose 25 (27) or 45 (28) mg/kg b.w.): 3/8 | TOX, No. of animals exhibiting motor impairment/no. of used animals (neurotoxicity (rotarod); [13]): 8/8 | TOX, No. of animals exhibiting motor impairment/no. of used animals (neurotoxicity (rotarod); [14]): 4/4

— patent US8633251B2, “Derivatives of aminoalkanols, method of obtaining of aminoalkanols and their use” (Uniwersytet Jagiellonski, priority 2008, dated 2014)
